Experiments:
HGFA [1] = molecular target: T1, HGFA (Homo sapiens, UniProt Q04756); assay: HGFA competition assay of inhibitor and substrate; type: biochemical; details: 0, 0.25, 0.5, 1.0 μM inhibitor; Pefachrome
T1 construct: His6 tag (N); seven amino acid spacer and seven amino acid TEV cleavage site (N); Honey Bee melittin signal peptide (N); made in house; host or cells: High 5 insect cells (baculovirus; virus raised in Sf9)
T1 sequence (Q04756 373-655): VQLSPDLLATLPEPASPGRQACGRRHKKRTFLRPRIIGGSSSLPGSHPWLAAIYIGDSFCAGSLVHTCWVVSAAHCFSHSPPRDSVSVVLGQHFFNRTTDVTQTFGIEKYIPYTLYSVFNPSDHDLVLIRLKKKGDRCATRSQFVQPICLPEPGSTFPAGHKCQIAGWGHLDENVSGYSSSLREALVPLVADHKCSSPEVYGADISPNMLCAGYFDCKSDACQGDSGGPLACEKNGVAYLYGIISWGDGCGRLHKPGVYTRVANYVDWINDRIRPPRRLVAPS
Protocol: From the plots of the mean reaction velocity versus substrate concentration and the Michaelis-Menten enzyme kinetics equation within GraphPad Prism version 6.04 for Windows, the reaction Vmax and subsequent Km for each concentration of inhibitor was determined as shown in the FIG. 1.

HGFA [2] = molecular target: T1, HGFA; assay: Dilution recovery experiments with HGFA; type: biochemical; details: rapid 1:350 dilution; Boc-QLR-AMC 250 μM
Protocol: After incubating for 20 minutes at room temperature, these reactions were diluted rapidly (1:350) in TNC buffer containing 250 μM Boc-QLR-AMC substrate (˜7 times Kin). Activity was monitored by recording the change in fluorescence (excitation at 380 nm and emission at 460 nn) over time in a Biotek Synergy 2 plate reader. GraphPad Prism was used to plot the change in fluorescence over time.

[3] = system: c-MET phosphorylation in MDA-MB-231 cells; assay: c-MET phosphorylation (Y1234/1235) in MDA-MB-231 cells treated with HGFA processed pro-HGF; type: cell-based, human; details: pro-HGF/HGFA reactions, read-out: EC50, inhibition of c-MET phosphorylation
Source text: To show the inhibition provided by the tetrapeptide compounds would have effects on cell signaling through c-MET kinase, a phosphorylation assay using the invasive breast cancer cell line, MDA-MB-231 was developed. This cell line has high expression of c-MET and pro-HGFA but not pro-HGF.
MDA-MB-231 cells were maintained in RPMI medium (Sigma-Aldrich R8758, St. Louis, Mo.) containing 10% fetal bovine serum (Sigma F2442) and 1× Penicillin/Streptomycin (Pen/Strep) antibiotics (Thermo Fisher SV30010). […] After 18 hours, cells were switched to fresh starve media and then treated with HGFA Proteolysis reactions containing 1 nM HGFA, 50 ng pro-HGF and various amounts of inhibitors. […] Lysate aliquots were mixed with reducing SDS gel loading buffer and run on 10% PAGE.
Immunoblots were performed as described previously, except primary antibodies, anti-phospho cMet (Cell Signaling, CS3077) and anti-total cMet (Cell Signaling, CS3127) were used and diluted in 5% BSA/TBST. Secondary antibodies, HRP-anti rabbit antibody (CS7074) and HRP-anti mouse (CS7076) were used, respectively. All antibodies were used at a 1:1000 dilution. Images were obtained and quantitated using BioRad ChemiDoc MP Imaging System. cMet phosphorylation signals were normalized using the total cMet signals and % inhibition calculated using the ratio of inhibited versus uninhibited HGFA Proteolytic reactions. […]

Row | mode of inhibition versus substrate (HGFA [1]) | reversibility of HGFA inhibition (HGFA [2]) | EC50 [3] [nM] | Structure (SMILES)
1 | competitive | reversible inhibitor |  | CC(=O)N[C@@H](CCCCN)C(=O)N[C@@H](CCC(N)=O)C(=O)N[C@@H](CC(C)C)C(=O)N[C@@H](CCCNC(=N)N)C(=O)c1nccs1 [Compound 5, Ac-KQLR(SEQ ID NO: 1)-kt]
2 |  |  | 180 | CC(=O)N[C@@H](CCCCN)C(=O)N[C@@H](CCCNC(=N)N)C(=O)N[C@@H](CC(C)C)C(=O)N[C@@H](CCCNC(=N)N)C(=O)c1nccs1 [Compound 5g, Ac-KRLR(SEQ ID NO: 8)-kt]
